{"source": "ChEMBL document CHEMBL5126639", "about": "“Semisynthesis and Evaluation of Anti-Inflammatory Activity of the Cassane-Type Diterpenoid Taepeenin F and of Some Synthetic Intermediates” (J Nat Prod, 2022)", "key": {"[1]": {"tested_on": "RAW264.7", "experiment": "Anti-inflammatory activity against mouse RAW264.7 cells assessed as inhibition of LPS-induced NO production at 0.25 times of IC50 concentration after 24 to 72 hrs by griess reagent assay relative to control", "assay_type": "functional, cell-based", "conditions": "time 24-72 hrs"}, "[2]": {"tested_on": "Plasmodium falciparum", "experiment": "Antimalarial activity against Plasmodium falciparum FCR-3/A2 erythrocytic stage infected in human erythrocytes assessed as reduction in parasite growth after 48 hrs by Giemsa staining based assay", "assay_type": "functional, organism-based", "conditions": "FCR-3/A2, Erythrocyte"}, "[3]": {"tested_on": "HT-29", "experiment": "Antiproliferative activity against human HT-29 cells assessed as reduction in cell viability after 72 hrs by MTT assay", "assay_type": "functional, cell-based", "conditions": "HT-29, 72 h"}, "[4]": {"tested_on": "RAW264.7", "experiment": "Anti-inflammatory activity against mouse RAW264.7 cells assessed as inhibition of LPS-induced NO production after 48 hrs by griess reagent assay", "assay_type": "functional, cell-based", "conditions": "RAW264.7, 48 h"}, "[5]": {"tested_on": "RAW264.7", "experiment": "Anti-inflammatory activity against mouse RAW264.7 cells assessed as inhibition of LPS-induced NO production after 24 hrs by griess reagent assay", "assay_type": "functional, cell-based", "conditions": "RAW264.7, 24 h"}, "[6]": {"tested_on": "RAW264.7", "experiment": "Inhibition of LPS-induced cell differentiation in mouse RAW264.7 cells at 0.25 to 0.75 IC50 concentration after 72 hrs by propidium iodide staining based flow cytometric analysis", "assay_type": "functional", "conditions": "DDE = dose-dependent effect"}, "[7]": {"experiment": "Inhibition of LPS-induced cell cycle arrest in mouse RAW264.7 cells assessed as cell accumulation at G0/G1 phase at 0.25 to 0.75 IC50 concentration after 72 hrs by propidium iodide staining based flow cytometric analysis relative to control", "assay_type": "functional", "parameters": "scale not given: the % may be the effect or the level left"}, "[8]": {"experiment": "Inhibition of LPS-induced cell cycle arrest in mouse RAW264.7 cells assessed as cell accumulation at G2/M phase at 0.25 to 0.75 IC50 concentration after 72 hrs by propidium iodide staining based flow cytometric analysis relative to control", "assay_type": "functional", "parameters": "scale not given: the % may be the effect or the level left"}, "[9]": {"tested_on": "HepG2", "experiment": "Antiproliferative activity against human HepG2 cells assessed as reduction in cell viability after 72 hrs by MTT assay", "assay_type": "functional, cell-based"}, "[10]": {"tested_on": "B16-F10", "experiment": "Induction of cell cycle arrest in mouse B16-F10 cells assessed as cells accumulation at S phase at IC50 concentration after 72 hrs by propidium iodide staining based flow cytometric analysis (reference value: 39.21%)", "assay_type": "functional"}, "[11]": {"tested_on": "B16-F10", "experiment": "Induction of cell cycle arrest in mouse B16-F10 cells assessed as cells accumulation at G2/M phase at IC50 concentration after 72 hrs by propidium iodide staining based flow cytometric analysis (reference value: 3.16%)", "assay_type": "functional"}, "[12]": {"tested_on": "B16-F10", "experiment": "Induction of cell cycle arrest in mouse B16-F10 cells assessed as cells accumulation at G2/M phase at IC80 concentration after 72 hrs by propidium iodide staining based flow cytometric analysis (reference value: 3.16%)", "assay_type": "functional"}, "[13]": {"tested_on": "B16-F10", "experiment": "Induction apoptosis in mouse B16-F10 cells assessed as increase in apoptotic cells at IC50 to IC80 concentration after 48 to 72 hrs by AnnexinV/propidium iodide staining based flow cytometric analysis", "assay_type": "functional, cell-based", "conditions": "time 48-72 hrs, DDE = dose-dependent effect"}, "[14]": {"tested_on": "B16-F10", "experiment": "Induction apoptosis in mouse B16-F10 cells assessed as viable cells at IC50 concentration after 48 hrs by AnnexinV/propidium iodide staining based flow cytometric analysis (reference value: 86.9%)", "assay_type": "functional"}, "[15]": {"tested_on": "B16-F10", "experiment": "Induction apoptosis in mouse B16-F10 cells assessed as necrotic cells at IC50 concentration after 48 hrs by AnnexinV/propidium iodide staining based flow cytometric analysis (reference value: 8.2%)", "assay_type": "functional"}, "[16]": {"tested_on": "B16-F10", "experiment": "Induction apoptosis in mouse B16-F10 cells assessed as necrotic cells at IC80 concentration after 48 hrs by AnnexinV/propidium iodide staining based flow cytometric analysis (reference value: 8.2%)", "assay_type": "functional"}, "[17]": {"tested_on": "B16-F10", "experiment": "Induction apoptosis in mouse B16-F10 cells assessed as early apoptotic cells at IC50 concentration after 72 hrs by AnnexinV/propidium iodide staining based flow cytometric analysis (reference value: 0.1%)", "assay_type": "functional"}, "[18]": {"tested_on": "B16-F10", "experiment": "Induction apoptosis in mouse B16-F10 cells assessed as necrotic cells at IC50 concentration after 72 hrs by AnnexinV/propidium iodide staining based flow cytometric analysis (reference value: 9.9%)", "assay_type": "functional"}, "[19]": {"tested_on": "B16-F10", "experiment": "Induction apoptosis in mouse B16-F10 cells assessed as viable cells at IC80 concentration after 72 hrs by AnnexinV/propidium iodide staining based flow cytometric analysis (reference value: 87.8%)", "assay_type": "functional"}, "[20]": {"experiment": "Inhibition of LPS-induced cell cycle arrest in mouse RAW264.7 cells assessed as cell accumulation at S phase at 0.25 to 0.75 IC50 concentration after 72 hrs by propidium iodide staining based flow cytometric analysis relative to control", "assay_type": "functional", "parameters": "scale not given: the % may be the effect or the level left"}, "[21]": {"tested_on": "B16-F10", "experiment": "Induction apoptosis in mouse B16-F10 cells assessed as viable cells at IC80 concentration after 48 hrs by AnnexinV/propidium iodide staining based flow cytometric analysis (reference value: 86.9%)", "assay_type": "functional"}}, "note": "Calls of active or inactive are those of the source. No cut-off for these calls is given here."}
{"smiles": "COC(=O)[C@]1(C)CCC[C@]2(C)c3cc(O)c(CO)c(C)c3CC[C@@H]12", "values": [{"measurement": "inhibition", "setting": "[1]", "result": "Active"}]}
{"smiles": "CC(=O)O[C@H]1CC(C)(C)[C@]2(O)CCc3c(cc(O)c(C=O)c3C)[C@@]2(C)[C@H]1OC(C)=O", "note": "[NORCAESALPININ C]", "values": [{"measurement": "IC50", "setting": "[2]", "result": 5, "unit": "µM"}]}
{"smiles": "COC(=O)[C@]1(C)CCC[C@]2(C)c3cc4c(c(C)c3CC[C@@H]12)CC(=O)O4", "values": [{"measurement": "inhibition", "setting": "[1]", "result": "Active"}]}
{"smiles": "COC(=O)[C@]1(C)CCC[C@]2(C)c3cc(O)c(C(C)C)c(C)c3CC[C@@H]12", "values": [{"measurement": "inhibition", "setting": "[1]", "result": "Active"}, {"measurement": "IC50", "setting": "[3]", "result": 222, "unit": "µM"}]}
{"smiles": "C[C@H]1c2ccoc2C[C@H]2[C@H]1[C@H]1O[C@H]1[C@@]1(O)C(C)(C)[C@@H](OC(=O)c3ccccc3)CC[C@]21C", "values": [{"measurement": "IC50", "setting": "[4]", "result": 2.9, "unit": "µM"}]}
{"smiles": "CC(=O)O[C@H]1CCC(C)(C)[C@]2(O)[C@@H](OC(C)=O)[C@@H]3OC(=O)[C@@H]4c5ccoc5C[C@@H]([C@@H]34)[C@@]12C", "note": "[CAESALPININ D]", "values": [{"measurement": "IC50", "setting": "[5]", "result": 25.4, "unit": "µM"}]}
{"smiles": "CC(=O)O[C@H]1[C@@H]2OC(=O)[C@@H]3c4ccoc4C[C@@H]([C@@H]23)[C@@]2(C)[C@@H](O)CCC(C)(C)[C@]12O", "values": [{"measurement": "IC50", "setting": "[5]", "result": 25.4, "unit": "µM"}]}
{"smiles": "COC(=O)[C@]1(C)CCC[C@@]2(C)[C@H]1CC=C1C(C)=C(C(C)C)C(=O)C[C@@H]12", "values": [{"measurement": "inhibition", "setting": "[1]", "result": "Active"}, {"measurement": "inhibition", "setting": "[6]", "result": "Dde"}, {"measurement": "Activity", "setting": "[7]", "result": 68, "unit": "%"}, {"measurement": "Activity", "setting": "[8]", "result": 0.3, "unit": "%"}, {"measurement": "IC80", "setting": "[9]", "result": 72.4, "unit": "µM"}, {"measurement": "Activity", "setting": "[10]", "result": 38.83, "unit": "%"}, {"measurement": "Activity", "setting": "[11]", "result": 1.12, "unit": "%"}, {"measurement": "Activity", "setting": "[12]", "result": 1.22, "unit": "%"}, {"measurement": "Activity", "setting": "[13]", "result": "Dde"}, {"measurement": "Activity", "setting": "[14]", "result": 84.1, "unit": "%"}, {"measurement": "Activity", "setting": "[15]", "result": 2.7, "unit": "%"}, {"measurement": "Activity", "setting": "[16]", "result": 2.8, "unit": "%"}, {"measurement": "Activity", "setting": "[17]", "result": 0.1, "unit": "%"}, {"measurement": "Activity", "setting": "[18]", "result": 3.8, "unit": "%"}, {"measurement": "Activity", "setting": "[19]", "result": 47.5, "unit": "%"}]}
{"smiles": "COC(=O)[C@]1(C)CCC[C@]2(C)c3cc(O)c(C=O)c(C)c3CC[C@@H]12", "values": [{"measurement": "inhibition", "setting": "[1]", "result": "Active"}, {"measurement": "inhibition", "setting": "[6]", "result": "Dde"}, {"measurement": "Activity", "setting": "[20]", "result": 69, "unit": "%"}, {"measurement": "Activity", "setting": "[7]", "result": 68, "unit": "%"}, {"measurement": "Activity", "setting": "[8]", "result": 0.3, "unit": "%"}, {"measurement": "Activity", "setting": "[11]", "result": 0.18, "unit": "%"}, {"measurement": "Activity", "setting": "[12]", "result": 0, "unit": "%"}, {"measurement": "Activity", "setting": "[13]", "result": "Dde"}, {"measurement": "Activity", "setting": "[15]", "result": 2.8, "unit": "%"}, {"measurement": "Activity", "setting": "[21]", "result": 64.9, "unit": "%"}, {"measurement": "Activity", "setting": "[16]", "result": 2.2, "unit": "%"}, {"measurement": "Activity", "setting": "[18]", "result": 0.9, "unit": "%"}, {"measurement": "Activity", "setting": "[19]", "result": 57.9, "unit": "%"}]}
